Laboratory results published in BigSolDB 2.1.

## CCOc1cccc(C=O)c1O
In acetone, 278.15 K
  solubility (mole fraction): 0.155
In acetone, 283.15 K
  solubility (mole fraction): 0.217
In acetone, 288.15 K
  solubility (mole fraction): 0.272
In acetone, 293.15 K
  solubility (mole fraction): 0.325
In acetone, 298.15 K
  solubility (mole fraction): 0.384
In acetone, 303.15 K
  solubility (mole fraction): 0.446
In acetone, 308.15 K
  solubility (mole fraction): 0.523
In acetone, 313.15 K
  solubility (mole fraction): 0.605
In acetonitrile, 278.15 K
  solubility (mole fraction): 0.104
In acetonitrile, 283.15 K
  solubility (mole fraction): 0.154
In acetonitrile, 288.15 K
  solubility (mole fraction): 0.206
In acetonitrile, 293.15 K
  solubility (mole fraction): 0.254
In acetonitrile, 298.15 K
  solubility (mole fraction): 0.303
In acetonitrile, 303.15 K
  solubility (mole fraction): 0.352
In acetonitrile, 308.15 K
  solubility (mole fraction): 0.415
In acetonitrile, 313.15 K
  solubility (mole fraction): 0.498
In ethanol, 278.15 K
  solubility (mole fraction): 0.0153
In ethanol, 283.15 K
  solubility (mole fraction): 0.0195
In ethanol, 288.15 K
  solubility (mole fraction): 0.0287
In ethanol, 293.15 K
  solubility (mole fraction): 0.0433
In ethanol, 298.15 K
  solubility (mole fraction): 0.0662
In ethanol, 303.15 K
  solubility (mole fraction): 0.102
In ethanol, 308.15 K
  solubility (mole fraction): 0.145
In ethanol, 313.15 K
  solubility (mole fraction): 0.214
In ethyl acetate, 278.15 K
  solubility (mole fraction): 0.134
In ethyl acetate, 283.15 K
  solubility (mole fraction): 0.174
In ethyl acetate, 288.15 K
  solubility (mole fraction): 0.209
In ethyl acetate, 293.15 K
  solubility (mole fraction): 0.25
In ethyl acetate, 298.15 K
  solubility (mole fraction): 0.294
In ethyl acetate, 303.15 K
  solubility (mole fraction): 0.344
In ethyl acetate, 308.15 K
  solubility (mole fraction): 0.403
In ethyl acetate, 313.15 K
  solubility (mole fraction): 0.497
In isopropanol, 278.15 K
  solubility (mole fraction): 0.0095
In isopropanol, 283.15 K
  solubility (mole fraction): 0.0143
In isopropanol, 288.15 K
  solubility (mole fraction): 0.0197
In isopropanol, 293.15 K
  solubility (mole fraction): 0.0284
In isopropanol, 298.15 K
  solubility (mole fraction): 0.0437
In isopropanol, 303.15 K
  solubility (mole fraction): 0.0642
In isopropanol, 308.15 K
  solubility (mole fraction): 0.0925
In isopropanol, 313.15 K
  solubility (mole fraction): 0.151
In methanol, 278.15 K
  solubility (mole fraction): 0.0196
In methanol, 283.15 K
  solubility (mole fraction): 0.0355
In methanol, 288.15 K
  solubility (mole fraction): 0.0567
In methanol, 293.15 K
  solubility (mole fraction): 0.0786
In methanol, 298.15 K
  solubility (mole fraction): 0.132
In methanol, 303.15 K
  solubility (mole fraction): 0.211
In methanol, 308.15 K
  solubility (mole fraction): 0.304
In methanol, 313.15 K
  solubility (mole fraction): 0.434
In methyl acetate, 278.15 K
  solubility (mole fraction): 0.137
In methyl acetate, 283.15 K
  solubility (mole fraction): 0.185
In methyl acetate, 288.15 K
  solubility (mole fraction): 0.227
In methyl acetate, 293.15 K
  solubility (mole fraction): 0.281
In methyl acetate, 298.15 K
  solubility (mole fraction): 0.335
In methyl acetate, 303.15 K
  solubility (mole fraction): 0.388
In methyl acetate, 308.15 K
  solubility (mole fraction): 0.475
In methyl acetate, 313.15 K
  solubility (mole fraction): 0.563
In n-butanol, 278.15 K
  solubility (mole fraction): 0.0163
In n-butanol, 283.15 K
  solubility (mole fraction): 0.0206
In n-butanol, 288.15 K
  solubility (mole fraction): 0.0287
In n-butanol, 293.15 K
  solubility (mole fraction): 0.0398
In n-butanol, 298.15 K
  solubility (mole fraction): 0.0566
In n-butanol, 303.15 K
  solubility (mole fraction): 0.0795
In n-butanol, 308.15 K
  solubility (mole fraction): 0.116
In n-butanol, 313.15 K
  solubility (mole fraction): 0.164
In n-butyl acetate, 278.15 K
  solubility (mole fraction): 0.0985
In n-butyl acetate, 283.15 K
  solubility (mole fraction): 0.125
In n-butyl acetate, 288.15 K
  solubility (mole fraction): 0.158
In n-butyl acetate, 293.15 K
  solubility (mole fraction): 0.188
In n-butyl acetate, 298.15 K
  solubility (mole fraction): 0.237
In n-butyl acetate, 303.15 K
  solubility (mole fraction): 0.281
In n-butyl acetate, 308.15 K
  solubility (mole fraction): 0.334
In n-butyl acetate, 313.15 K
  solubility (mole fraction): 0.409
In n-propanol, 278.15 K
  solubility (mole fraction): 0.0145
In n-propanol, 283.15 K
  solubility (mole fraction): 0.0198
In n-propanol, 288.15 K
  solubility (mole fraction): 0.0262
In n-propanol, 293.15 K
  solubility (mole fraction): 0.0395
In n-propanol, 298.15 K
  solubility (mole fraction): 0.0576
In n-propanol, 303.15 K
  solubility (mole fraction): 0.0824
In n-propanol, 308.15 K
  solubility (mole fraction): 0.124
In n-propanol, 313.15 K
  solubility (mole fraction): 0.176
In n-propyl acetate, 278.15 K
  solubility (mole fraction): 0.105
In n-propyl acetate, 283.15 K
  solubility (mole fraction): 0.136
In n-propyl acetate, 288.15 K
  solubility (mole fraction): 0.164
In n-propyl acetate, 293.15 K
  solubility (mole fraction): 0.205
In n-propyl acetate, 298.15 K
  solubility (mole fraction): 0.248
In n-propyl acetate, 303.15 K
  solubility (mole fraction): 0.312
In n-propyl acetate, 308.15 K
  solubility (mole fraction): 0.374
In n-propyl acetate, 313.15 K
  solubility (mole fraction): 0.464
In water, 278.15 K
  solubility (mole fraction): 5.24e-05
In water, 283.15 K
  solubility (mole fraction): 6.55e-05
In water, 288.15 K
  solubility (mole fraction): 7.32e-05
In water, 293.15 K
  solubility (mole fraction): 8.68e-05
In water, 298.15 K
  solubility (mole fraction): 0.000106
In water, 303.15 K
  solubility (mole fraction): 0.000125
In water, 308.15 K
  solubility (mole fraction): 0.000155
In water, 313.15 K
  solubility (mole fraction): 0.000191
